Measured values taken from patent US10206937B2, “Boronic acid derivatives and therapeutic uses thereof” (Qpex Biopharma, Inc., priority 2014, dated 2019).

Tested on: strains of Enterobacteriaceae producing various carbapenemases (class A, D and B; 169 strains)
Assay: Meropenem or tebipenem potentiation by Compounds 97 or 62 (MIC)
Format: cell-based
Protocol: The largest panel of clinical isolates expressing class A, D and B carbapenemases alone or in combination with other beta-lactamases (169 strains) was used to evaluate carbapenem potentiation activity of Compounds 97 and 62. MIC for meropenem and tebipenem of these strains were determined either alone or in the presence of Compounds 97 or 62, respectively, at a fixed concentration of 8 μg/ml in the growth media.

## C[C@@H](O)[C@H]1C(=O)N2C(C(=O)O)=C(SC3CN(C4=NCCS4)C3)[C@H](C)[C@H]12 [T]
CF1022 Citrobacter freundii SHV-12(2be), TEM-OSBL(2b), IMP-8
  Tebipenem MIC alone (T): Y (MIC of 1 μg/mL to 10 μg/mL)
CF1023 Citrobacter freundii SHV-12(2be), TEM-OSBL(2b), CTX-M-3, CMY-34, NDM-1
  Tebipenem MIC alone (T): Z (MIC of greater than 10 μg/mL)
EC1061 Escherichia coli NDM-1, CMY-6
  Tebipenem MIC alone (T): Z (MIC of greater than 10 μg/mL)
EC1069 Escherichia coli CTX-M-27, NDM-1
  Tebipenem MIC alone (T): Z (MIC of greater than 10 μg/mL)
EC1070 Escherichia coli TEM-OSBL(2b), CMY-42, NDM-5
  Tebipenem MIC alone (T): Z (MIC of greater than 10 μg/mL)
EC1072 Escherichia coli CTX-M-3, NDM-1
  Tebipenem MIC alone (T): Z (MIC of greater than 10 μg/mL)
ECL1045 Enterobacter cloacae VIM-1
  Tebipenem MIC alone (T): Y (MIC of 1 μg/mL to 10 μg/mL)
ECL1055 Enterobacter cloacae KPC-3, TEM
  Tebipenem MIC alone (T): Z (MIC of greater than 10 μg/mL)
ECL1057 Enterobacter cloacae NDM-1, TEM-1, CTX-M-15
  Tebipenem MIC alone (T): Z (MIC of greater than 10 μg/mL)
ECL1084 Enterobacter cloacae CTX-M-15, ACT-16, NDM-1
  Tebipenem MIC alone (T): Z (MIC of greater than 10 μg/mL)
ECL1085 Enterobacter cloacae SHV-31(2be), TEM-1(2b), CTX-M-15, NDM-1
  Tebipenem MIC alone (T): Z (MIC of greater than 10 μg/mL)
ECL1087 Enterobacter cloacae VIM-1
  Tebipenem MIC alone (T): Y (MIC of 1 μg/mL to 10 μg/mL)
ECL1090 Enterobacter cloacae TEM-1(2b), CTX-M-22, ACT-type, IMP-8
  Tebipenem MIC alone (T): Y (MIC of 1 μg/mL to 10 μg/mL)
ECL1092 Enterobacter cloacae TEM-OSBL(2b), ACT-32, VIM-1
  Tebipenem MIC alone (T): Y (MIC of 1 μg/mL to 10 μg/mL)
ECL1093 Enterobacter cloacae TEM-OSBL(2b), ACT-32, VIM-1
  Tebipenem MIC alone (T): Y (MIC of 1 μg/mL to 10 μg/mL)
ECL1094 Enterobacter cloacae VIM-1
  Tebipenem MIC alone (T): Z (MIC of greater than 10 μg/mL)
ECL1095 Enterobacter cloacae SHV-12(2be), TEM-OSBL(2b), CMY-4, ACT-16, VIM-4, OXA-48(c)
  Tebipenem MIC alone (T): Z (MIC of greater than 10 μg/mL)
ECL1096 Enterobacter cloacae CMY-4, VIM-4, OXA-48(c)
  Tebipenem MIC alone (T): Z (MIC of greater than 10 μg/mL)
ECL1097 Enterobacter cloacae SHV-31(2be), TEM-OSBL(2b), CTX-M-15, ACT-31, NDM-1
  Tebipenem MIC alone (T): Z (MIC of greater than 10 μg/mL)
ECL1098 Enterobacter cloacae TEM-OSBL(2b), DHA-1, ACT-16, NDM-1
  Tebipenem MIC alone (T): Z (MIC of greater than 10 μg/mL)
KP1054 Klebsiella pneumoniae VIM-1, SHV-11
  Tebipenem MIC alone (T): Z (MIC of greater than 10 μg/mL)
KP1059 Klebsiella pneumoniae VIM-1, SHV-11
  Tebipenem MIC alone (T): Z (MIC of greater than 10 μg/mL)
KP1061 Klebsiella pneumoniae KPC-3, TEM-1, SHV-11
  Tebipenem MIC alone (T): Z (MIC of greater than 10 μg/mL)
KP1064 Klebsiella pneumoniae KPC-2, TEM-1, SHV-11
  Tebipenem MIC alone (T): Z (MIC of greater than 10 μg/mL)
KP1065 Klebsiella pneumoniae VIM-1, SHV-11
  Tebipenem MIC alone (T): Y (MIC of 1 μg/mL to 10 μg/mL)
KP1070 Klebsiella pneumoniae KPC-2, SHV-11, TEM-1
  Tebipenem MIC alone (T): Z (MIC of greater than 10 μg/mL)
KP1074 Klebsiella pneumoniae KPC-3, SHV-11, TEM
  Tebipenem MIC alone (T): Z (MIC of greater than 10 μg/mL)
KP1081 Klebsiella pneumoniae NDM-1, TEM-1, SHV-11, CMY-6, CTX-M-15
  Tebipenem MIC alone (T): Z (MIC of greater than 10 μg/mL)
KP1158 Klebsiella pneumoniae KPC-2, VIM-1
  Tebipenem MIC alone (T): Z (MIC of greater than 10 μg/mL)
KP1159 Klebsiella pneumoniae SHV-1(2b), CTX-M-15, IMP-4
  Tebipenem MIC alone (T): Y (MIC of 1 μg/mL to 10 μg/mL)
KP1160 Klebsiella pneumoniae SHV-28(2be), CTX-M-15, IMP-26
  Tebipenem MIC alone (T): Y (MIC of 1 μg/mL to 10 μg/mL)
KP1161 Klebsiella pneumoniae NDM-1
  Tebipenem MIC alone (T): Z (MIC of greater than 10 μg/mL)
KP1162 Klebsiella pneumoniae SHV-1(2b), CTX-M-15, IMP-4
  Tebipenem MIC alone (T): Z (MIC of greater than 10 μg/mL)
KP1163 Klebsiella pneumoniae SHV-11(2b), MOX-1, KPC-2, VIM-1
  Tebipenem MIC alone (T): Z (MIC of greater than 10 μg/mL)
KP1164 Klebsiella pneumoniae SHV-12(2be), VIM-1
  Tebipenem MIC alone (T): Z (MIC of greater than 10 μg/mL)
KP1165 Klebsiella pneumoniae SHV-11(2b), CTX-M-15, VIM-27
  Tebipenem MIC alone (T): Z (MIC of greater than 10 μg/mL)
KP1166 Klebsiella pneumoniae SHV-5(2be), VIM-26
  Tebipenem MIC alone (T): Z (MIC of greater than 10 μg/mL)
KP1168 Klebsiella pneumoniae SHV-11(2b), CTX-M-15, VIM-27
  Tebipenem MIC alone (T): Z (MIC of greater than 10 μg/mL)
KP1169 Klebsiella pneumoniae SHV-11(2b), VIM-1
  Tebipenem MIC alone (T): Y (MIC of 1 μg/mL to 10 μg/mL)
KP1170 Klebsiella pneumoniae SHV-11(2b), CTX-M-15, NDM-1
  Tebipenem MIC alone (T): Z (MIC of greater than 10 μg/mL)
KP1172 Klebsiella pneumoniae SHV-31(2be), DHA-1, VIM-1
  Tebipenem MIC alone (T): Y (MIC of 1 μg/mL to 10 μg/mL)
KP1173 Klebsiella pneumoniae TEM-33(2br), CTX-M-15, IMP-1
  Tebipenem MIC alone (T): Y (MIC of 1 μg/mL to 10 μg/mL)
KP1174 Klebsiella pneumoniae CTX-M-14, IMP-1
  Tebipenem MIC alone (T): Y (MIC of 1 μg/mL to 10 μg/mL)
KP1175 Klebsiella pneumoniae SHV-OSBL(2b), VIM-1
  Tebipenem MIC alone (T): Z (MIC of greater than 10 μg/mL)
KP1176 Klebsiella pneumoniae SHV-12(2be), TEM-OSBL(2b), CMY-13, KPC-2, VIM-1
  Tebipenem MIC alone (T): Z (MIC of greater than 10 μg/mL)
KP1177 Klebsiella pneumoniae SHV-OSBL(2b), TEM-OSBL(2b), CTX-M-15, NDM-1
  Tebipenem MIC alone (T): Z (MIC of greater than 10 μg/mL)
KP1178 Klebsiella pneumoniae SHV-OSBL(2b), TEM-OSBL(2b), CTX-M-15, NDM-1
  Tebipenem MIC alone (T): Z (MIC of greater than 10 μg/mL)
KP1179 Klebsiella pneumoniae SHV-12(2be), TEM-OSBL(2b), CTX-M-15, NDM-7
  Tebipenem MIC alone (T): Z (MIC of greater than 10 μg/mL)
KP1180 Klebsiella pneumoniae SHV-OSBL(2b), TEM-OSBL(2b), CTX-M-15, DHA-1, IMP-26
  Tebipenem MIC alone (T): Y (MIC of 1 μg/mL to 10 μg/mL)
KP1181 Klebsiella pneumoniae SHV-OSBL(2b), CTX-M-15, IMP-26
  Tebipenem MIC alone (T): Y (MIC of 1 μg/mL to 10 μg/mL)
